Values quoted from earlier work in US20210236523A1, “P[…] FOR HEADACHE DISORDERS” (priority 2020, published 2021).
“Also recorded” adds a separate entry of the source.

What was measured:
[1] = tested on: cluster headache; conditions: et al., cited from earlier work
[2] = target: 5-HT2A (Homo sapiens, UniProt P28223); conditions: cited from earlier work
[3] = tested on: dopamine receptor; conditions: cited from earlier work
[4] = tested on: 5-HT1; conditions: cited from earlier work
[5] = target: 5-HT2B (Homo sapiens, UniProt P41595); conditions: cited from earlier work
Chain of 5-HT2B (P41595 whole entry, species assumed): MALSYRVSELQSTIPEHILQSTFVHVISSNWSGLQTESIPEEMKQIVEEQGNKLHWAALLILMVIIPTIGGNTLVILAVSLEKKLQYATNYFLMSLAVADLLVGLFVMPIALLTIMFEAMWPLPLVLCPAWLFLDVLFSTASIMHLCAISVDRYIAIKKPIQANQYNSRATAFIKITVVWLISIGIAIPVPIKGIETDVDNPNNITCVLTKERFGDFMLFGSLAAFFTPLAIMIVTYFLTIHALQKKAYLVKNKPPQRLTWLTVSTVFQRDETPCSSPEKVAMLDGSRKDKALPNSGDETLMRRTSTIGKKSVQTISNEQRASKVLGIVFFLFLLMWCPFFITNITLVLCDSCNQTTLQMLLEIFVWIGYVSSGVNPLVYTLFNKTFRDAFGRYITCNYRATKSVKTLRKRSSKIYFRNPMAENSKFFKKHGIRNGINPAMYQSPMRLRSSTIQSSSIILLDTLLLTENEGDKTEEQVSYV

Chain of 5-HT2A (P28223 whole entry): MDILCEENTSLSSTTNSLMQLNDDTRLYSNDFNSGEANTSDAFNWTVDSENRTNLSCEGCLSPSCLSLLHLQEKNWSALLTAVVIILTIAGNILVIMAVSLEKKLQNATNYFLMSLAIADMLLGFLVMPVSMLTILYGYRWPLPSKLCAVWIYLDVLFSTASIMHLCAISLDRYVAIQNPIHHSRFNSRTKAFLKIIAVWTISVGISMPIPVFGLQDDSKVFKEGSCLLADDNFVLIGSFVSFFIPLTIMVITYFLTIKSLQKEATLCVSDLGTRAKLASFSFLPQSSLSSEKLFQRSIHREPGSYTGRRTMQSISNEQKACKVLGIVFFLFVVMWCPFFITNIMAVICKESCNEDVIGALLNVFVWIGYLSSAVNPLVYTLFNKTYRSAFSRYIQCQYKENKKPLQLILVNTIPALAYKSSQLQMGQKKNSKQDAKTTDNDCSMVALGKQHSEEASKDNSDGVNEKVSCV

SMILES: CCN(CC)C(=O)[C@@H]1C=C2c3cccc4[nH]cc(c34)C[C@H]2N(C)C1 [LSD, lysergic acid diethylamide]
- reported effects in cluster headache ([1]; Sewell, 2006, Schindler et al., 2015): stop acute cluster attacks, terminate cluster cycles, and induce and prolong remission from cluster headache

SMILES: CCN(CC)C(=O)[C@@H]1C=C2c3cccc4[nH]c(Br)c(c34)C[C@H]2N(C)C1 [BOL-148, 2-bromo-lysergic acid diethylamide]
- effect on cluster headache cycle and attacks ([1]; three single oral doses of 30 μg/kg, Karst, 2010): either break a cluster headache cycle or considerably improve the frequency and intensity of attacks

SMILES: CN(C)CCc1c[nH]c2cccc(O)c12 [psilocin]
- affinity for 5-HT2A [2]: high affinity; also recorded: modest affinity
- effect on the dopamine receptor [3]: no effect
- affinity for 5-HT1 [4]: low affinity
- affinity for 5-HT2B [5]: high affinity
